The source of these data is patent US20250122191A1, “COMPOUNDS AS BCL-2 INHIBITORS” (Fochon Biosciences, Ltd, priority 2021, published 2025).

Each structure is given as a SMILES string.

The subject of experiment [1] is RS4;11-BCL-2 D103E cells. As to the kind of experiment: Cell proliferation assay (MTS), RS4;11-BCL-2 D103E engineered cells. As to conditions: Homo sapiens, 72 h, read-out: RS4, 11 BCL2-D103E IC50. Format: cell-based. The source says: MTS testing kit was purchased from Promega (Madison, WI, USA). The RPMI-1640, Fetal bovine serum and Penicillin-Streptomycin were purchased from BI (Biological Industries, Beit Haemek, Israel). Puromycin was purchased from Beyotime (shanghai, China). Dimethyl sulfoxide (DMSO) was purchased from Sigma (St. Louis., MO, USA). RS4;11-BCL-2 G101V (Cobioer Lot. #: CBD2021063013P4), RS4;11-BCL-2 D103E (Cobioer Lot. #: CBD2021063013P4), RS4;11-BCL-2 D103Y (Cobioer Lot. #: CBD2022012101P4) and RS4;11-BCL-2 F104L (Cobioer Lot. #: CBD2021063014P4) cells were cultured in RPMI1640 supplemented with 1 ug/mL puromycin, 100 U/mL Penicillin-Streptomycin and 10% FBS.
To investigate whether a compound is able to inhibit the activity of BCL-2 mutation in cells, a mechanism-based assay using engineered cell lines stably overexpressing BCL-2 mutation (RS4;11-BCL-2 G101V, RS4;11-BCL-2 D103E, RS4;11-BCL-2 D103Y, and RS4;11-BCL-2 F104L) was developed. In this assay, the inhibition of BCL-2 mutation was reflected by the inhibition of cell proliferation of engineered RS4;11 cells. Cells were plated into 96-well plates at optimized cell density (RS4;11-BCL-2 G101V: 5000 cells/well; RS4;11-BCL-2 D103E: 7500 cells/well; RS4;11-BCL-2 D103Y: 7500 cells/well; RS4;11-BCL-2 F104L: 5000 cells/well). Plates were incubated at 37° C., with 5% CO2 for 4 h (RS4;11-BCL-2 G101V, RS4;11-BCL-2 F104L) and 24 h (RS4;11-BCL-2 D103E, RS4;11-BCL-2 D103Y), respectively. Compounds were serially diluted and added to the plates with the final concentrations of 10000, 3333.3, 1111.1, 370.4, 123.5, 41.2, 13.7, 4.6 and 1.5 nM. Plates were incubated at 37° C., with 5% CO2 for 120 h (RS4; 11-BCL-2 G101V, RS4; 11-BCL-2 F104L) and 72 h (RS4;11-BCL-2 D103E, RS4;11-BCL-2 D103Y), respectively. 20 μl MTS was added into each well and the plates were incubated at 37° C., with 5% CO2 exactly for 2 h. The absorbance was measured by a microplate reader at 490 nm. IC50 values were calculated using GraphPad Prism 8.0 software.

Experiment [2] relates to RS4;11-BCL-2 G101V cells. As to the kind of experiment: Cell proliferation assay (MTS), RS4;11-BCL-2 G101V engineered cells. The following applies: Homo sapiens, 120 h, read-out: RS4, 11 BCL2-G101V IC50. Format: cell-based. Summed up: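 Proliferation IC50 in RS4;11 lines engineered with BCL-2 mutations, measured by MTS at 490 nm after 72 h (D103E, D103Y) or 120 h (G101V, F104L) compound treatment at 37 °C.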

By IC50 is commonly meant the midpoint of a concentration-inhibition curve. On to `CC(C)c1ccccc1[C@@H]1CN(C2CCOCC2)CCN1C1CC2(CCN(c3ccc(C(=O)NS(=O)(=O)c4cnc(NC[C@H]5CC[C@](C)(O)CC5)c([N+](=O)[O-])c4)c(Oc4cnc5[nH]cc(F)c5c4)c3)CC2)C1` [Example 320, 2-((3-fluoro-1H-pyrrolo[2,3-b]pyridin-5-yl)oxy)-N-((6-((((1r,4r)-4-hydroxy-4-methylcyclohexyl)methyl)amino)-5-nitropyridin-3-yl)sulfonyl)-4-(2-((R)-2-(2-isopropylphenyl)-4-(tetrahydro-2H-pyran-4-yl)piperazin-1-yl)-7-azaspiro[3.5]nonan-7-yl)benzamide], for which the IC50 in experiment [1] and in experiment [2] was 1 nM throughout.
Regarding `CC(C)c1ccccc1[C@@H]1CN(C[C@H]2COCCO2)CCN1C1CC2(CCN(c3ccc(C(=O)NS(=O)(=O)c4cnc(NC[C@H]5CC[C@](C)(O)CC5)c([N+](=O)[O-])c4)c(Oc4cnc5[nH]cc(F)c5c4)c3)CC2)C1` [Example 330, 4-(2-((R)-4-(((S)-1,4-dioxan-2-yl)methyl)-2-(2-isopropylphenyl)piperazin-1-yl)-7-azaspiro [3.5]nonan-7-yl)-2-((3-fluoro-1H-pyrrolo[2,3-b]pyridin-5-yl)oxy)-N-((6-((((1r,4r)-4-hydroxy-4-methylcyclohexyl)methyl)amino)-5-nitropyridin-3-yl)sulfonyl)benzamide], the IC50 in experiment [1] and in experiment [2] was 1 nM throughout.
Consider `COc1cc(CN2CCN(C3CC4(CCN(c5ccc(C(=O)NS(=O)(=O)c6cnc(NC[C@H]7CC[C@](C)(O)CC7)c([N+](=O)[O-])c6)c(Oc6cnc7[nH]cc(F)c7c6)c5)CC4)C3)[C@H](c3ccccc3C(C)C)C2)cnc1OC` [Example 259, 4-(2-((R)-4-((5,6-dimethoxypyridin-3-yl)methyl)-2-(2-isopropylphenyl)piperazin-1-yl)-7-azaspiro[3.5]nonan-7-yl)-2-((3-fluoro-1H-pyrrolo[2,3-b]pyridin-5-yl)oxy)-N-((6-((((1r,4r)-4-hydroxy-4-methylcyclohexyl)methyl)amino)-5-nitropyridin-3-yl)sulfonyl)benzamide], for which the IC50 in experiment [1] and in experiment [2] was 1 nM in each case.
On to `COc1nc2[nH]cc(F)c2cc1Oc1cc(N2CCC3(CC2)CC(N2CCN(C[C@H]4COCCO4)C[C@H]2c2ccccc2C(C)C)C3)ccc1C(=O)NS(=O)(=O)c1cnc(NC[C@H]2CC[C@](C)(O)CC2)c([N+](=O)[O-])c1` [Example 328, 4-(2-((R)-4-(((S)-1,4-dioxan-2-yl)methyl)-2-(2-isopropylphenyl)piperazin-1-yl)-7-azaspiro[3.5]nonan-7-yl)-2-((3-fluoro-6-methoxy-1H-pyrrolo[2,3-b]pyridin-5-yl)oxy)-N-((6-((((1r,4r)-4-hydroxy-4-methylcyclohexyl)methyl)amino)-5-nitropyridin-3-yl)sulfonyl)benzamide], for which the IC50 in experiment [1] and in experiment [2] was 1 nM each time.
`[2H]C([2H])([2H])Oc1cc(CN2CCN(C3CC4(CCN(c5ccc(C(=O)NS(=O)(=O)c6cnc(NC[C@H]7CC[C@](C)(O)CC7)c([N+](=O)[O-])c6)c(Oc6cc7c(F)c[nH]c7nc6OC)c5)CC4)C3)[C@H](c3ccccc3C(C)C)C2)ccn1` [Example 164, 2-((3-fluoro-6-methoxy-1H-pyrrolo[2,3-b]pyridin-5-yl)oxy)-N-((6-((((1r,4r)-4-hydroxy-4-methylcyclohexyl)methyl)amino)-5-nitropyridin-3-yl)sulfonyl)-4-(2-((R)-2-(2-isopropylphenyl)-4-((2-(methoxy-d3)pyridin-4-yl)methyl)piperazin-1-yl)-7-azaspiro[3.5]nonan-7-yl)benzamide]: the IC50 in experiment [1] is 1 nM.
